Tested on: HeLa cells
Experiment: Cell-based pharmacodynamic assay (CellTiter-Glo proliferation inhibition), HeLa
Conditions: human cervical cancer HeLa cells; 72 hours incubation; CellTiter-Glo luminescence; read-out: IC50 against HeLa cells
Protocol: Complete media such as RPMI 1640 (Gibco, A1049101), EMEM (ATCC, 30-2003), DMEM (Gibco, C11995500CP), McCoy's 5A (Gibco, 16600082), and F-12K (ATCC, 30-2004) were prepared by supplementing with varying concentrations of FBS (Biological Industries, 04-002-1A) and 1% Penicillin-Streptomycin (Gibco, 15140122) and was thoroughly mixed. Tumor cell lines including HeLa (ATCC, CCL-2; EMEM + 10% FBS), TOV-21G (Cobioer, CBP60292; 1:1 mixture of MCDB 105 and Medium 199 + 15% FBS), OVCAR-3 (ATCC, HTB-161; RPMI 1640 + 20% FBS + 0.01 mg/ml bovine insulin), SK-OV-3 (ATCC, HTB-77; McCoy's 5A + 10% FBS), A2780 (Cobioer, CBP60283; RPMI 1640 + 10% FBS), OC316 (Cobioer, CBP60620; RPMI 1640 + 10% FBS), HuH-7 (Cobioer, CBP60202; DMEM + 10% FBS), SNU-398 (ATCC, CRL-2233; RPMI 1640 + 10% FBS), NCI-H2286 (ATCC, CRL-5938; RPMI 1640 + 5% FBS), NCI-H82 (ATCC, HTB-175; RPMI 1640 + 10% FBS), A549 (ATCC, CCL-185; F-12K + 10% FBS), SK-MEL-3 (ATCC, HTB-69; McCoy's 5A + 15% FBS), PSN-1 (Cobioer, CBP61215; RPMI 1640 + 10% FBS), LoVo (ATCC, CCL-229; F-12K + 10% FBS), DLD-1 (ATCC, CCL-221; RPMI 1640 + 10% FBS), HCT-15 (ATCC, CCL-225; RPMI 1640 + 10% FBS), A498 (ATCC, HTB-44; EMEM + 10% FBS), LNCaP (ATCC, CRL-1740; RPMI 1640 + 10% FBS), SNU-1 (ATCC, CRL-5971; RPMI 1640 + 10% FBS), SCC-9 (Cobioer, CBP60428; DMEM/F12 (1:1) + 10% FBS + 0.5 mM sodium pyruvate + 400 ng/ml hydrocortisone), SU-DHL-5 (ATCC, CRL-2958; RPMI 1640 + 10% FBS), Toledo (ATCC, CRL-2631; RPMI 1640 + 10% FBS), and SJCRH30 (ATCC, CRL-2061; RPMI 1640 + 10% FBS) were thawed. Cells were passaged approximately twice, and those in good growth condition (typically passages 4-6) were selected for experiments. The medium was aspirated, and the cells were washed once with 0.25% trypsin (Invitrogen, 25200-072). The waste liquid was discarded, and 3 mL of fresh trypsin was added to the culture flask for digestion. When the cells began to detach, 9 mL of complete medium was added to neutralize the trypsin digestion, and the mixture was gently mixed. The cell suspension was transferred to a centrifuge tube using a pipette and centrifuged at 1000 rpm for 5 minutes. The supernatant was discarded, and 5 mL of medium was added to the centrifuge tube to gently resuspend the cells evenly. The cell concentration was adjusted to 1×10^4/mL-3×10^4/mL using a cell counter (Beckman Coulter, Vi-cellTM XR). The cell suspension was added to a 96-well plate (Corning, 3903) at 100 µL/well. The plate was labeled with details such as cell name, seeding density, and date, and then placed in a CO2 incubator (Thermo, Thermo 3111) overnight. Test compounds were prepared as 20 mM stock solutions in DMSO (Sigma, D4540-1L) and added to the corresponding cell wells using an HPD300 automated dispenser according to the designed layout. The plates were incubated in a 37°C, 5% CO2 incubator for 72 hours. CellTiter-Glo Buffer was thawed at room temperature. The lyophilized CellTiter-Glo substrate was equilibrated to room temperature. The CellTiter-Glo Buffer was added to the CellTiter-Glo substrate and thoroughly mixed. The cell plates were removed and equilibrated to room temperature, and 50 µL of the mixed CellTiter-Glo reagent was added to each well. The plates were protected from light and shaken for 10 minutes, followed by incubation for 10 minutes. The plates were placed in an Enspire reader (luminescence measurement time: 0.5 s) to record luminescence results. The inhibition rate was calculated using the following formula: Inhibition rate (%) = (1 - (RLU_compound - RLU_blank) / (RLU_DMSO - RLU_blank)) × 100%. Dose-response curves were plotted using XLFit to calculate IC50 values. A four-parameter model was used: [fit = (A + ((B - A) / (1 + ((C/x) ^ D)))]. The test results for HeLa cells are shown in Table 1. Table 1: IC50 values of some test compounds against human cervical cancer HeLa cells

Compound	IC50
C#Cc1cccc2[nH]c3c(c12)CCCC3=O [Compound B68]	≤ 200 nM
Cc1noc(-c2cccc3[nH]c4c(c23)CCCC4=O)n1 [Compound B69]	≤ 200 nM
Cc1nnc(-c2cccc3[nH]c4c(c23)CCCC4=O)o1 [Compound B70]	≤ 200 nM
Cc1nsc(-c2cccc3[nH]c4c(c23)CCCC4=O)n1 [Compound B71]	≤ 200 nM
CS(=O)(=O)c1cccc2[nH]c3c(c12)CCCC3=O [Compound B74]	≤ 200 nM
NS(=O)(=O)c1cccc2[nH]c3c(c12)CCCC3=O [Compound B75]	≤ 500 nM
CN(C)S(=O)(=O)c1cccc2[nH]c3c(c12)CCCC3=O [Compound B76]	≤ 200 nM
CS(C)(=O)=Nc1cccc2[nH]c3c(c12)CCCC3=O [Compound B80]	≤ 500 nM
CC(=O)c1cccc2[nH]c3c(c12)CCCC3=O [Compound B82]	≤ 200 nM
COC(=O)c1cc(F)cc2[nH]c3c(c12)CCCC3=O [Compound B83]	≤ 200 nM
COC(=O)c1c(F)ccc2[nH]c3c(c12)CCCC3=O [Compound B85]	≤ 200 nM
COC(=O)c1c(C)ccc2[nH]c3c(c12)CCCC3=O [Compound B87]	≤ 200 nM
COC(=O)c1c(Cl)ccc2[nH]c3c(c12)CCCC3=O [Compound B89]	≤ 200 nM
COC(=O)c1c(OC)ccc2[nH]c3c(c12)CCCC3=O [Compound B91]	≤ 200 nM
COc1ccc(Cn2nnc(-c3cccc4[nH]c5c(c34)CCCC5=O)n2)cc1 [Compound B94]	≤ 500 nM
O=C1CCCc2c1[nH]c1cccc(C(=O)OC3CCC3)c21 [Compound B95]	≤ 200 nM
O=C1CCCc2c1[nH]c1cccc(-c3ccncc3)c21 [Compound B96]	≤ 200 nM
Cc1cc(-c2cccc3[nH]c4c(c23)CCCC4=O)ccn1 [Compound B97]	≤ 500 nM
Cc1nc(-c2cccc3[nH]c4c(c23)CCCC4=O)no1 [Compound B99]	≤ 200 nM
CC(O)c1cccc2[nH]c3c(c12)CCCC3=O (centres unmarked) [Compound B105]	≤ 500 nM
CCOC(=O)c1cccc2[nH]c3c(c12)SCCC3=O [Compound B107]	≤ 200 nM

Compound	IC50
[2H]C([2H])([2H])C([2H])([2H])OC(=O)c1cccc2[nH]c3c(c12)CCCC3=O [Compound B116]	≤ 200 nM
CCOC(=O)c1c(C)ccc2[nH]c3c(c12)CCCC3=O [Compound B117]	≤ 200 nM
CCOC(=O)c1c(Cl)ccc2[nH]c3c(c12)CCCC3=O [Compound B118]	≤ 200 nM
C#Cc1ccc(COC(=O)c2cccc3[nH]c4c(c23)CCCC4=O)s1 [Compound B120]	≤ 200 nM
C#CC1(C(=O)Oc2cccc3[nH]c4c(c23)CCCC4=O)CC1 [Compound B121]	≤ 500 nM
CCn1ncc(-c2cccc3[nH]c4c(c23)CCCC4=O)n1 [Compound B123]	≤ 200 nM
CC(C)n1ncc(-c2cccc3[nH]c4c(c23)CCCC4=O)n1 [Compound B124]	≤ 200 nM
CCC#Cc1cccc2[nH]c3c(c12)CCCC3=O [Compound B126]	≤ 200 nM
O=C1CCCc2c1[nH]c1cccc(C(=O)OC3CC(O)C3)c21 (centres unmarked) [Compound B129]	≤ 200 nM
O=C1CCCc2c1[nH]c1cccc(C(=O)OC3CCC(O)CC3)c21 (centres unmarked) [Compound B130]	≤ 200 nM
COc1ccc2[nH]c3c(c2c1-c1cnn(C)n1)CCCC3=O [Compound B134]	≤ 200 nM
O=C1CCCc2c1[nH]c1cccc(C(=O)OC3CC(F)C3)c21 (centres unmarked) [Compound B139]	≤ 200 nM
CC1(COC(=O)c2cccc3[nH]c4c(c23)CCCC4=O)COC1 [Compound B140]	≤ 200 nM
CC(O)CCC(C)OC(=O)c1cccc2[nH]c3c(c12)CCCC3=O (centres unmarked) [Compound B141]	≤ 200 nM
C[C@@H](O)COC(=O)c1cccc2[nH]c3c(c12)CCCC3=O [Compound B147]	≤ 200 nM
NC(=O)COC(=O)c1cccc2[nH]c3c(c12)CCCC3=O [Compound B148]	≤ 200 nM
O=C1CCCc2c1[nH]c1cccc(C(=O)OC(CO)CO)c21 [Compound B149]	≤ 200 nM
C[C@H](O)COC(=O)c1cccc2[nH]c3c(c12)CCCC3=O [Compound B150]	≤ 200 nM
C#Cc1ccc2[nH]c3c(c2c1C(=O)OCC)CCCC3=O [Compound B153]	≤ 200 nM
Cn1cc(-c2cccc3[nH]c4c(c23)CCCC4=O)cn1 [Compound B154]	≤ 200 nM
CCn1cc(-c2cccc3[nH]c4c(c23)CCCC4=O)cn1 [Compound B155]	≤ 200 nM

Compound	IC50
O=C1CCCc2c1[nH]c1cccc(-c3cnn(C(F)F)c3)c21 [Compound B156]	≤ 200 nM
O=C1CCCc2c1[nH]c1cccc(C(=O)Oc3cn[nH]c3)c21 [Compound B160]	≤ 200 nM
Cc1cc(COC(=O)c2cccc3[nH]c4c(c23)CCCC4=O)n[nH]1 [Compound B163]	≤ 200 nM
Cn1nc2ccccc2c1COC(=O)c1cccc2[nH]c3c(c12)CCCC3=O [Compound B164]	≤ 200 nM
O=C1CCCc2c1[nH]c1cccc(C(=O)Oc3cccc4[nH]ncc34)c21 [Compound B166]	≤ 500 nM
C=C=Cn1cc(-c2cccc3[nH]c4c(c23)CCCC4=O)cn1 [Compound B173]	≤ 200 nM
N#CC1(COC(=O)c2cccc3[nH]c4c(c23)CCCC4=O)CC1 [Compound B175]	≤ 500 nM
O=C1CCCc2c1[nH]c1cccc(C(=O)OC3CCC(O)C3)c21 (centres unmarked) [Compound B177]	≤ 200 nM
Cc1nn(C)cc1-c1cccc2[nH]c3c(c12)CCCC3=O [Compound B180]	≤ 500 nM
O=C1CCCc2c1[nH]c1cccc(-c3cnn(CCO)c3)c21 [Compound B181]	≤ 200 nM
O=C1CCCc2c1[nH]c1cccc(C(=O)OC3COCC3O)c21 (centres unmarked) [Compound B186]	≤ 500 nM
O=C1CCCc2c1[nH]c1cccc(C(=O)O[C@@H](CO)c3ccccc3)c21 [Compound B189]	≤ 500 nM
[2H]C([2H])([2H])n1cc(-c2cccc3[nH]c4c(c23)CCCC4=O)cn1 [Compound B191]	≤ 200 nM
O=C1CCCc2c1[nH]c1cccc(N3CC[C@@H](CO)C3)c21 [Compound B193]	≤ 200 nM
O=C1CCCc2c1[nH]c1cccc(N3CCO[C@H](CO)C3)c21 [Compound B194]	≤ 200 nM
O=C1CCCc2c1[nH]c1cccc(N3CC[C@H](CO)C3)c21 [Compound B196]	≤ 200 nM
COC(=O)c1cccc2c1c1c(n2C(C)=O)C(=O)CCC1 [Compound C01]	≤ 200 nM
C=CC(=O)n1c2c(c3c(C(=O)OCC)cccc31)CCCC2=O [Compound C03]	≤ 200 nM
CCOC(=O)c1cccc2c1c1c(n2C(=O)c2ccccc2)C(=O)CCC1 [Compound C04]	≤ 200 nM
CCOCC(=O)n1c2c(c3c(C(=O)OCC)cccc31)CCCC2=O [Compound C14]	≤ 200 nM

From EP4711356A1, “TETRAHYDROCARBAZOLE DERIVATIVE, PHARMACEUTICAL COMPOSITION, AND USE THEREOF” (Nain Biotech (Hangzhou) Co., Ltd., priority 2023, dated 2024)
